Source: ChEMBL document CHEMBL1152078, “An efficient preparation of the potent and selective pseudopeptide thrombin inhibitor, inogatran” (Bioorg Med Chem Lett, 1997)

Assays:
[1] = The compound was evaluated for bioavailability in rats; 32-51; format: ADME, organism-based; conditions: rat, in vivo; read-out: Bioavailabiility
[2] = The compound was evaluated for bioavailability in dogs; 34-44; format: ADME, organism-based, Canis lupus familiaris; conditions: dog, in vivo; read-out: Bioavailabiility

`Cl.Cl.N=C(N)NCCCNC(=O)[C@@H]1CCCCN1C(=O)[C@@H](CC1CCCCC1)NCC(=O)O` showed a bioavailability [1] of 51% and a bioavailability [2] of 44%.
